Laboratory results reported in publication PMC9361549, “High-affinity SOAT1 ligands remodeled cholesterol metabolism program to inhibit tumor growth” (BMC Medicine, 2022).
One block for each molecule: values may come before it.

How the values were obtained:
[1] = molecular target: T1, SOAT1 (Homo sapiens, UniProt P35610); assay: SPR (Biacore T200, CM5 chip, immobilised SOAT1); assay type: binding; details: PBS running buffer with 5% DMSO; 0.0195 nM to 20 μM
T1 sequence (P35610 1-550): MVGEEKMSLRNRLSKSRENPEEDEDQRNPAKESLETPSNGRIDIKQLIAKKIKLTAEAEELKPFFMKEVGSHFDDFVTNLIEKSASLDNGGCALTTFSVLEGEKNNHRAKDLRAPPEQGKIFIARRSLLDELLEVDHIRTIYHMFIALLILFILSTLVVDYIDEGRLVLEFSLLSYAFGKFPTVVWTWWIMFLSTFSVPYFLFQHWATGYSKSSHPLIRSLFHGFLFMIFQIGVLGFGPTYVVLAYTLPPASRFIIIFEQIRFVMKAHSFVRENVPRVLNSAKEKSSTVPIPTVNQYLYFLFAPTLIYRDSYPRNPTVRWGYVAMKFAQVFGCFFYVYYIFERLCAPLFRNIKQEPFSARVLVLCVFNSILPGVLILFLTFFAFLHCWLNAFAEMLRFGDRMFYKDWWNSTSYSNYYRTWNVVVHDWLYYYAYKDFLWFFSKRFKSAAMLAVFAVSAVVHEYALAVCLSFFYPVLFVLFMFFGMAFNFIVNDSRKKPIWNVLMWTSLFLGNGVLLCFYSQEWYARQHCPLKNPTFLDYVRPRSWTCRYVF

[2] = molecular target: T1, SOAT1; assay: SPR single-concentration screen (Biacore T200, CM5 chip, immobilised SOAT1); assay type: binding; details: 100 nmol/L compound; PBS with 5% DMSO; positive control
[3] = molecular target: the molecule itself; assay: SEC; Superdex 200 10/300 GL in 25 mM Tris pH 8.0, 150 mM NaCl, 0.02% GDN, after nickel affinity purification; fractions checked by SDS-PAGE

- KD [1]: 7.19 E^−7 M
Molecule: CN(C)CC[C@H](CSc1ccccc1)Nc1ccc(S(=O)(=O)NC(=O)c2ccc(N3CCN(Cc4ccccc4-c4ccc(Cl)cc4)CC3)cc2)cc1[N+](=O)[O-] [ABT-737]

Molecule: CCCCCCCCCCC(C)(C)C(=O)Nc1c(OC)cc(OC)cc1OC [CI-976]
- SPR single-concentration screen (Biacore T200, CM5 chip, immobilised SOAT1) [2]: including three positive controls: avasimibe, nevanimibe, and CI-976

Molecule: CC(C)c1cc(C(C)C)c(CC(=O)NS(=O)(=O)Oc2c(C(C)C)cccc2C(C)C)c(C(C)C)c1 [avasimibe]
- SPR single-concentration screen (Biacore T200, CM5 chip, immobilised SOAT1) [2]: including three positive controls: avasimibe, nevanimibe, and CI-976

- KD [1]: 3.91 E^−6 M
Molecule: Cc1cc(C)c2c(c1)[C@@H](N(Cc1cc(C(F)(F)F)cc(C(F)(F)F)c1)c1nnn(C)n1)CCCN2C[C@H]1CC[C@H](C(=O)O)CC1 [evacetrapib]

- KD [1]: 2.02E^−7 M
Molecule: Cc1cn(-c2cc(NC(=O)c3ccc(C)c(Nc4nccc(-c5cccnc5)n4)c3)cc(C(F)(F)F)c2)cn1 [nilotinib]

B1: sterol O-acyltransferase 1 (SOAT1), human, with a carboxy-terminal 6xHis-tag (enzyme, UniProt P35610-1 1-550, looked up)
chain: T1 sequence (P35610 1-550)
notes: sterol O-acyltransferase 1 (SOAT1), human; NCBI ID 6646) cloned into pCAG; no removal of the His-tag is described; also called SOAT1 protein
- stoichiometry N [3]: 2
